Assay results reported in US12551438B2, “Nanobowl-supported drug-loaded liposome, preparation method therefor and application thereof” (priority 2020, dated 2026).
Structures can show the parent of a compound that is named as a salt.

Key:
4T1 tumor tissue = assay: TUNEL and PCNA immunohistochemical staining of tumor tissue of 4T1 tumor-bearing mice; assay type: in vivo, mouse; conditions: tumor tissue after treatment
Text: (§1) [formula] • 2) after the tumor volume grew to 80 mm^3, it was evenly divided into the following 5 experimental groups according to the size of tumor volume: • (1) Saline group (Saline) • (2) Blank nanobowls@liposomes group (NB@LP) • (3) Doxorubicin hydrochloride group (Dox) • (4) Common Dox-liposome group (DLP) • (5) Nanobowls@Dox-liposome group (NB@DLP) • 3) On the 8th, 11th and 14th day after inoculation, the corresponding drugs were intravenously injected into the tail vein of each experimental group, and the corresponding drugs were administered to each group at a dose of 4 mg/kg of doxorubicin. 3. Monitoring of Mouse Body Weight and Tumor Volume • 1) determining body weight and tumor length and diameter every 2 days after the first dose of group, calculating tumor volume, and recording and summarizing all results; • 2) using GraphPad Prism 7.0 medical mapping software for data induction, statistical analysis, and making charts. 4. Immunohistochemical Staining of Tissue Sections • 1) after the last intravenous administration, selecting several mice in each experimental group, after sacrifice, dissecting and removing tumor tissues and important organs of mice, and fully immersing in 4% paraformaldehyde solution for fixation; • 2) during fixation, replacing fresh 4% paraformaldehyde solution several times to wash out residual blood. […]

[1] = system: important organs of tumor-bearing mice; conditions: mouse, in vivo
Text: as §1

4T1 breast cancer cells = assay: Cell viability by CCK-8 method; assay type: cell-based, mouse; conditions: 4T1 cells, doxorubicin 0.01-10.00 μg/mL, 48 h
Method: [formula] • 5) collecting the nanobowls@Dox-liposomes at each time point by centrifugation (24000 g, 15 min) and determining the particle size and potential by DLS after redispersion. 1.2. […] Incubating the culture plate in a 37° C., 5% CO2 constant temperature cell incubator for 12 h; 2) preparing different nanoparticle structures in a serum-free culture medium with a drug concentration gradient to prepare a culture medium containing different concentrations of liquid medicine, sucking out the old culture medium in the culture plate, and then adding 200 μL of a new culture medium containing the liquid medicine to each well; • 3) placing the 96-well plate containing cells in a 37° C., 5% CO2 constant temperature cell incubator for culture for appropriate time; • 4) diluting CCK-8 liquid with serum-free culture medium by a factor of 10 according to 1:10, sucking out the old culture medium in the culture plate, and adding 100 μL culture medium containing CCK-8 into each well; • 5) incubating the culture plate in a 37° C., 5% CO2 constant temperature cell incubator for 0.5-1 h; • 6) determining the absorbance of each well with a microplate reader at a wavelength of 450 nm. […]

4T1 breast cancer = system: 4T1 breast cancer
Method: • 1) 4T1 cell culture solution: DMEM basal medium, 1 penicillin streptomycin double antibody, 10% fetal bovine serum; • 2) 4% paraformaldehyde solution: with PBS (0.01 M) of pH 7.4 as the solvent, weighing 40 g of paraformaldehyde and placing into 800 mL of PBS solution, shaking and dissolving in a constant temperature shaker at 60° C. overnight; after the solid of paraformaldehyde is completely dissolved, stopping heating, balancing to room temperature, and adding PBS again to dilute the volume to 1 L; • 3) 1% sodium pentobarbital anesthetic: weighing 100 mg pentobarbital sodium, adding into 10 mL ultrapure water, and vortexing until it is fully dissolved. II. Experimental Method 1. Establishment of Orthotopic Inoculation Model for 4T1 Breast Cancer 1.1 Preparation of 4T1 Cell Suspension • 1) Taking a T-75 culture flask containing 4T1 cells, using a pipette to suck out the cell culture solution in the culture flask, and adding 5 mL of DPBS to rinse for 1-2 times to remove the residual culture solution; • 2) adding 2 mL of 0.25% trypsin, shaking the culture flask back and forth, so that the trypsin uniformly covers the bottom surface of the culture flask, and incubating in a constant temperature incubator containing 5% CO2 at 37° C. for 3 min; • 3) adding 10 mL serum-free cell culture medium, diluting trypsin and stop digestion; • 4) using a pipette to blow and beat the cell suspension to evenly disperse it to obtain a single cell suspension, taking 5 μL of cell suspension and adding placental blue dye solution with the same volume, and using an Invitrogen life countess cell counter to count the cells of cell suspension; • 5) centrifuging at 4° C. and 800 g for 5 min, discarding the supernatant, adding an appropriate amount of serum-free cell culture medium according to the intracellular concentration calculated previously, gently blowing and beating the cell block with a pipette to fully disperse it to prepare a single cell suspension, and the final concentration of cell suspension is: 1.6×10^7/mL; • 6) dispensing the 4T1 cell suspension into sterile 2 mL centrifuge tubes and storing at 4° C. until use. 1.2 BALB/c Female Mice Inoculated Orthotopically with 4T1 Cells • 1) On the day before inoculation, removing the hair on the right side of the abdomen of the mice to prepare the skin for the next day surgery; • 2) the next day, injecting the skin-prepared mice intraperitoneally with 1% pentobarbital anesthetic 100 μL; • 3)after complete anesthesia, fixing the limbs, wetting the right side of the abdomen with normal saline, and then using a scalpel to make a light incision on the abdomen; • 4) using tweezers to clamp out the 4th mammary fat pad located at the root of right thigh, and injecting 50 μL of 4T1 single cell suspension prepared above; • 5) loosening the tweezers, positioning the fat pad, and then suturing the abdominal wound; • 6) at the end of inoculation, returning the mice to their cages and the front leg of each mouse was taped with a label tape. 2. Animal Grouping and Dosing Regimen • 1) four days after inoculation, tumor volume was determined using vernier calipers: the longest and shortest diameters (L, W) of the tumor were measured every other day, and the tumor volume was calculated according to the following formula:
[formula] • 2) after the tumor volume grew to 80 mm^3, it was evenly divided into the following 5 experimental groups according to the size of tumor volume: • (1) Saline group (Saline) • (2) Blank nanobowls@liposomes group (NB@LP) • (3) Doxorubicin hydrochloride group (Dox) • (4) Common Dox-liposome group (DLP) • (5) Nanobowls@Dox-liposome group (NB@DLP) • 3) On the 8th, 11th and 14th day after inoculation, the corresponding drugs were intravenously injected into the tail vein of each experimental group, and the corresponding drugs were administered to each group at a dose of 4 mg/kg of doxorubicin. 3.

For `COc1cccc2c1C(=O)c1c(O)c3c(c(O)c1C2=O)C[C@@](O)(C(=O)CO)C[C@@H]3O[C@H]1C[C@H](N)[C@H](O)[C@H](C)O1` [Dox, doxorubicin hydrochloride], the “effect of promoting tumor cell apoptosis (TUNEL) and inhibiting proliferation (PCNA)” value (4T1 tumor tissue) was “worst effect”, the “toxicity to the heart (pathological sections)” value [1] was “more toxic to the heart, leading to the lysis and rupture of cardiomyocytes” and the “effect on cell viability” value (4T1 breast cancer cells) was “significantly stronger than that of common Dox-liposomes and nanobowls@Dox-liposomes”. For the same molecule, the tumor volume growth (4T1 breast cancer; 4 mg/kg doxorubicin i.v. tail vein, days 0, 3 and 6) was “could not achieve the expected treatment of tumor”, the median survival time (4T1 breast cancer; 4T1 breast cancer mice) was 27 days and the “Median survival” value (4T1 breast cancer; 4T1 breast cancer mice, 4 mg/kg doxorubicin i.v. x3) was 27 days. The “Prolong duration” value (4T1 breast cancer; median survival versus saline) was 3 days, the “Prolonged rate (%)” value (4T1 breast cancer; median survival versus saline control) was 12.50% and the “body weight of mice during administration” value (4T1 breast cancer; mouse, in vivo) was “significant decrease”. For the same molecule, the “prolongation of median survival time compared with the control group” value (4T1 breast cancer; versus saline control) was 3 days.
